Test results reported in article PMC5717258, “Bioaccumulation of pharmaceuticals and personal care product chemicals in fish exposed to wastewater effluent in an urban wetland” (Scientific Reports, 2017).

What was measured:
[1] = cited from earlier work; for BAFP: treated WWTP effluent from two Swedish cities
[2] = Plasma bioaccumulation factor (BAFP), goldfish; type: in vivo, goldfish (Carassius auratus)
Procedure: Bioaccumulation factor (BAFP) was calculated as concentration in fish plasma (ng/g × 1000) divided by concentration in water (ng/L). Two widely used modeling approaches for predicting organic contaminant bioaccumulation were assessed: the BCF-BAF model for whole body BAFs[53] and the fish-plasma concentration calculation of Huggett et al.[35] modified by Berninger et al.[54]. The latter involves estimating an octanol-water partition coefficient (Kow) adjusted for fraction ionized (log D), using the pKa value to adjust log Kow[54] taking into account the pH of CPM waters. Further information on the calculation of log D, blood-water partitioning (PBW), and plasma concentrations (FPC) is given in the SI.

[3] = cited from earlier work
[4] = cited from earlier work; remark: listed apart in the source
[5] = cited from earlier work; remark: listed apart in the source
[6] = cited from earlier work; remark: listed apart in the source
[7] = set-up: method as in US EPA Chemistry Dashboard; conditions: ref US EPA Chemistry Dashboard; cited from earlier work
[8] = wet weight
[9] = Jordan Harbour brown bullhead, wet weight
Procedure: Plasma from 9 individual male fish (500 µL/individual) was pooled to yield 3 samples for PPCP analysis. […] Plasma from 6 individual carp (2.3–3.5 g) from each location was selected for PPCP analysis. […] Plasma samples were frozen (−80 °C) until analysis.
A total of 20 fish plasma samples from the pooled caged fish (7) and the wild fish (13) along with 12 water samples were selected for analysis. […] A full list of analytes is provided in Supplementary Information. Mass labelled^13C-, or deuterated surrogate internal standards were used for quantification of all analytes via the isotope dilution/surrogate standard quantitation method. Prior to extraction and/or clean-up procedures, aqueous samples were adjusted to pH 2.0, spiked with extraction surrogate standards, then adjusted to pH 4 using tetrasodium ethylenediamine-tetraacetate dihydrate. Plasma samples (2.3–2.5 g) were spiked with extraction surrogate standards, sonicated with 20 mL acetonitrile, then diluted with ultra-pure water to 200 mL. The extracts were cleaned up by solid phase extraction using Oasis HLB cartridges (Waters Ltd. Mississauga ON), filtered, and analyzed by liquid chromatography-electrospray ionization-tandem mass spectrometry (LC/ESI-MS/MS) in positive or negative ionization mode. The analysis of the complete list of analytes (SI Table S1) required a total of five instrumental runs.

[10] = Table S7, ref Meador et al. (2016)

CN[C@H]1CC[C@@H](c2ccc(Cl)c(Cl)c2)c2ccccc21 [Sertraline]
plasma concentration, rainbow trout ([1]; ref Fick et al. 12): 0.30-2.4 ng/g wet weight or ng/mL for plasma
BAFP, CPM1 goldfish caged ([2]; CPM1): 50 L/kg
BAFP, CPM2 goldfish caged ([2]; CPM2, water sample of August 2012): 27 L/kg
Therapeutic "normal" blood-plasma/serum concentration ([3]; human, converted from µg/mL, ref Schulz et al.[56]): 50 to 250 ng/mL
toxic dose (toxic blood-plasma/serum concentration) ([3]; human, ref Schulz et al.[56]): 290 ng/mL
Cmax (human therapeutic dose) ([3]; ref Berninger & Brooks[60]): 290 ng/mL
BAFP in carp plasma, median [4]: 8.9
plasma concentration, crucian carp & common carp ([4]; mean ± SD, ref Tanoue et al.16): 0.21±0.18 ng/g wet weight or ng/mL for plasma
Sculpin (whole body) concentration [5, 10]: 0.2 ng/g
whole fish concentration, sculpin ([5]; ref Meador et al. 18): 0.2 ng/g wet weight or ng/mL for plasma
Salmon (whole body) concentration [6, 10]: 17 ng/g
whole fish concentration, salmon ([6]; ref Meador et al. 18): 17 ng/g wet weight or ng/mL for plasma
log Kow [7]: 5.29

O=C1Nc2ccc(Cl)cc2C(c2ccccc2)=NC1O (centres unmarked) [Oxazepam]
BAFP [1]: 0.7–3.6

CC(C)Cc1ccc(C(C)C(=O)O)cc1 (centres unmarked) [Ibuprofen]
BAFP [1]: 21–58
plasma concentration, CPM-C 01 ([8]; Cootes carp 01, 2011, male): < 3.16 ng/g
plasma concentration, CPM-C 2 ([8]; Cootes carp 2, Sep 27, 2011, male): < 4.31 ng/g
plasma concentration, CPM-C 10 ([8]; Cootes carp 10, Sep 28, 2011, female): < 4.53 ng/g
plasma concentration, CPM-C 20 ([8]; Cootes carp 20, 2011, male): < 3.23 ng/g
plasma concentration, JH-C 54 ([8]; Jordan Harbour carp 54, Nov 7, 2011, male): < 3.18 ng/g
plasma concentration, JH-C 73 ([8]; Jordan Harbour carp 73, Nov 7, 2011, female): < 3.09 ng/g
plasma concentration, JH-C 74 ([8]; Jordan Harbour carp 74, Nov 7, 2011, male): < 3.19 ng/g
plasma concentration, JH-C 75 ([8]; Jordan Harbour carp 75, Nov 7, 2011, female): < 4.52 ng/g
plasma concentration, JH-C 78 ([8]; Jordan Harbour carp 78, Nov 7, 2011, male): < 3.13 ng/g
plasma concentration, JH-C 82 ([8]; Jordan Harbour carp 82, Nov 7, 2011, female): < 3.01 ng/g
plasma concentration, JH-BB [9]: < 5.7 ng/g
